Target: T1, LHRH rat pituitary receptor (Rattus norvegicus, UniProt P30969)
T1 construct: from tissue; host or cells: rat pituitary
T1 sequence (P30969 1-327): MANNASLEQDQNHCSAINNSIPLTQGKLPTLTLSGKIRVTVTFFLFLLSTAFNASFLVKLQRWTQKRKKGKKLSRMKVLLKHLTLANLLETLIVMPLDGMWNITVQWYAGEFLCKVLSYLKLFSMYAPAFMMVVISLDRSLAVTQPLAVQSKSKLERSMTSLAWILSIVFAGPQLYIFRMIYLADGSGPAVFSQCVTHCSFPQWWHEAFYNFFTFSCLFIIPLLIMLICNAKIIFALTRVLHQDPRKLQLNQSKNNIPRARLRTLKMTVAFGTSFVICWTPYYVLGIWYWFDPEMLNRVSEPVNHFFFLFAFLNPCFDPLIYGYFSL
Test: LHRH rat pituitary receptor binding (pKI)
Settings: negative logarithm of the equilibrium dissociation constants, Table 1
Experimental: (§1) Representative compounds of the present invention were evaluated in in vitro tests for LHRH rat pituitary receptor binding (pKI) and for LH inhibition from rat pituitary cells for antagonist potency (pA2). The tests employed the methods detailed in F. Haviv, et al. J. Med. Chem., 32: 2340-2344 (1989). The receptor binding affinity (pKI) is the negative logarithm of the equilibrium dissociation constants.

receptor binding affinity (pKI)	SMILES
9.13	CCCN(C)[C@H]1C[C@@H](C)O[C@@H](O[C@@H]2[C@@H](C)[C@H](O[C@H]3C[C@@](C)(OC)[C@@H](O)[C@H](C)O3)[C@@H](C)C(=O)O[C@H](CC)[C@@]3(C)OC(=O)N(CCc4ccc(Cl)c(Cl)c4)[C@@H]3[C@@H](C)C(=O)[C@H](C)C[C@@]2(C)OC)[C@@H]1O [Example 3, 3'-N-Desmethyl-3'-N-n-propyl-11-deoxy-11-[carboxy-(3,4-dichlorophenethylamino)]-6-O-methyl-erythromycin A 11,12-(cyclic carbamate)]

Same assay, conditions: negative logarithm of the equilibrium dissociation constants, Table 1, read-out: receptor binding affinity (pKI) (converted)

Ki [nM]	SMILES
0.813	CC[C@H]1OC(=O)[C@H](C)[C@@H](O[C@H]2C[C@@](C)(OC)[C@@H](O)[C@H](C)O2)[C@H](C)[C@@H](O[C@@H]2O[C@H](C)C[C@H](N(C)C3CCCC3)[C@H]2O)[C@](C)(OC)C[C@@H](C)C(=O)[C@H](C)[C@H]2N(CCc3ccc(Cl)c(Cl)c3)C(=O)O[C@]12C [Example 1, 3'-N-Desmethyl-3'-N-cyclopentyl-11-deoxy-11-[carboxy-(3,4-dichlorophenethylamino)]-6-O-methyl-erythromycin A 11,12-(cyclic carbamate)]
7.08	CC[C@H]1OC(=O)[C@H](C)[C@@H](O[C@H]2C[C@@](C)(OC)[C@@H](O)[C@H](C)O2)[C@H](C)[C@@H](O[C@@H]2O[C@H](C)C[C@H](N(C)CCCCc3cccc(C)n3)[C@H]2O)[C@](C)(OC)C[C@@H](C)C(=O)[C@H](C)[C@H]2N(CCc3ccc(F)c(Cl)c3)C(=O)O[C@]12C [Example 84, 3'-N-Desmethyl-3'-N-[4-(6-methyl)-2-pyridyl]butyl-11-deoxy-11-[carboxy-(3-chloro-4-fluorophenethylamino)]-6-O-methyl-erythromycin A 11,12-(cyclic carbamate)]
5.89	CC[C@H]1OC(=O)[C@H](C)[C@@H](O[C@H]2C[C@@](C)(OC)[C@@H](O)[C@H](C)O2)[C@H](C)[C@@H](O[C@@H]2O[C@H](C)C[C@H](N(C)C(C)CCc3ccc(O)cc3)[C@H]2O)[C@](C)(OC)C[C@@H](C)C(=O)[C@H](C)[C@H]2N(CCc3ccc(Cl)c(Cl)c3)C(=O)O[C@]12C (some centres unmarked) [Example 85, 3'-N-Desmethyl-3'-N-(1-methyl)[3-(4-hydroxy)phenyl]propyl-11-deoxy-11-[carboxy-(3,4-dichlorophenethylamino)]-6-O-methyl-erythromycin A 11,12-(cyclic carbamate)]
1.78	CC[C@H]1OC(=O)[C@H](C)[C@@H](O[C@H]2C[C@@](C)(OC)[C@@H](O)[C@H](C)O2)[C@H](C)[C@@H](O[C@@H]2O[C@H](C)C[C@H](N(C)C(C)CCc3ccc(O)cc3)[C@H]2O)[C@](C)(OC)C[C@@H](C)C(=O)[C@H](C)[C@H]2N(CCc3ccc(F)c(Cl)c3)C(=O)O[C@]12C (some centres unmarked) [Example 86, 3'-N-Desmethyl-3'-N-(1-methyl)[3-(4-hydroxy)phenyl]propyl-11-deoxy-11-[carboxy-(3-chloro-4fluorophenethylamino)]-6-O-methyl-erythromycin A 11,12-(cyclic carbamate)]
2.24	CC[C@H]1OC(=O)[C@H](C)[C@@H](O[C@H]2C[C@@](C)(OC)[C@@H](O)[C@H](C)O2)[C@H](C)[C@@H](O[C@@H]2O[C@H](C)C[C@H](N(C)CCCc3cccc(C)n3)[C@H]2O)[C@](C)(OC)C[C@@H](C)C(=O)[C@H](C)[C@H]2N(CCc3ccc(F)c(Cl)c3)C(=O)O[C@]12C [Example 87, 3'-N-Desmethyl-3'-N-[3-(6-methyl-2-pyridyl)propyl]-11-deoxy-11-[carboxy-(3-chloro-4-fluorophenethylamino)]-6-O-methyl-erythromycin A 11,12-(cyclic carbamate)]
2.09	CC[C@H]1OC(=O)[C@H](C)[C@@H](O[C@H]2C[C@@](C)(OC)[C@@H](O)[C@H](C)O2)[C@H](C)[C@@H](O[C@@H]2O[C@H](C)C[C@H](N(C)CCCc3ccc(C)cn3)[C@H]2O)[C@](C)(OC)C[C@@H](C)C(=O)[C@H](C)[C@H]2N(CCc3ccc(F)c(Cl)c3)C(=O)O[C@]12C [Example 88, 3'-N-Desmethyl-3'-N-[3-(5-methyl-2-pyridyl)propyl]-11-deoxy-11[carboxy-(3-chloro-4-fluorophenethylamino)]-6-O-methyl-erythromycin A 11,12-(cyclic carbamate)]
4.17	CC[C@H]1OC(=O)[C@H](C)[C@@H](O[C@H]2C[C@@](C)(OC)[C@@H](O)[C@H](C)O2)[C@H](C)[C@@H](O[C@@H]2O[C@H](C)C[C@H](N(C)CCc3ccccn3)[C@H]2O)[C@](C)(OC)C[C@@H](C)C(=O)[C@H](C)[C@H]2N(CCc3ccc(Cl)c(Cl)c3)C(=O)O[C@]12C [Example 89, 3'-N-Desmethyl-3'-N-(2-pyridyl)ethyl-11-deoxy-11-[carboxy-(3,4-dichlorophenethylamino)]-6-O-methyl-erythromycin A 11,12-(cyclic carbamate)]
4.07	CC[C@H]1OC(=O)[C@H](C)[C@@H](O[C@H]2C[C@@](C)(OC)[C@@H](O)[C@H](C)O2)[C@H](C)[C@@H](O[C@@H]2O[C@H](C)C[C@H](N(C)CCc3ccccn3)[C@H]2O)[C@](C)(OC)C[C@@H](C)C(=O)[C@H](C)[C@H]2N(CCc3ccc(F)c(Cl)c3)C(=O)O[C@]12C [Example 90, 3'-N-Desmethyl-3'-N-(2-pyridyl)ethyl-11-deoxy-11-[carboxy-(3-chloro-4-fluorophenethylamino)]-6-O-methyl-erythromycin A 11,12-(cyclic carbamate)]
9.55	CC[C@H]1OC(=O)[C@H](C)[C@@H](O[C@H]2C[C@@](C)(OC)[C@@H](O)[C@H](C)O2)[C@H](C)[C@@H](O[C@@H]2O[C@H](C)C[C@H](N(C)Cc3ccc(O)cc3)[C@H]2O)[C@](C)(OC)C[C@@H](C)C(=O)[C@H](C)[C@H]2N(CCc3ccc(Cl)c(Cl)c3)C(=O)O[C@]12C [Example 91, 3'-N-Desmethyl-3'-N-(4-hydroxybenzyl)-11-deoxy-11-[carboxy-(3,4-dichlorophenethylamino)]-6-O-methyl-erythromycin A 11,12-(cyclic carbamate)]
6.31	CC[C@H]1OC(=O)[C@H](C)[C@@H](O[C@H]2C[C@@](C)(OC)[C@@H](O)[C@H](C)O2)[C@H](C)[C@@H](O[C@@H]2O[C@H](C)C[C@H](N(C)Cc3ccncc3)[C@H]2O)[C@](C)(OC)C[C@@H](C)C(=O)[C@H](C)[C@H]2N(CCc3ccc(Cl)c(Cl)c3)C(=O)O[C@]12C [Example 92, 3'-N-Desmethyl-3'-N-(4-pyridylmethyl)-11-deoxy-11-[carboxy-(3,4-dichlorophenethylamino)]-6-O-methyl-erythromycin A 11,12-(cyclic carbamate)]
5.01	CC[C@H]1OC(=O)[C@H](C)[C@@H](O[C@H]2C[C@@](C)(OC)[C@@H](O)[C@H](C)O2)[C@H](C)[C@@H](O[C@@H]2O[C@H](C)C[C@H](N(C)CCC(C)SC)[C@H]2O)[C@](C)(OC)C[C@@H](C)C(=O)[C@H](C)[C@H]2N(CCc3ccc(Cl)c(Cl)c3)C(=O)O[C@]12C (some centres unmarked) [Example 93, 3'-N-Desmethyl-3'-N-[(3-methylthio)butyl]-11-deoxy-11-[carboxy-(3,4-dichlorophenethylamino)]-6-O-methyl-erythromycin A 11,12-(cyclic carbamate)]

Target: T2, rat pituitary cells (Rattus norvegicus, UniProt P30969)
T2 construct: endogenous in cells; host or cells: rat pituitary cells
T2 sequence (P30969 1-327): T1 sequence (P30969 1-327)
Test: LH inhibition from rat pituitary cells, antagonist potency (pA2)
Assay type: cell-based
Settings: negative log of antagonist concentration shifting the leuprolide response curve to two-fold higher concentration, Table 2
Experimental: as §1
The pA2 value is the negative logarithm of the concentration of antagonist which shifts the response curve produced by the agonist leuprolide to two-fold higher concentration. Leuprolide is the LHRH agonist having the structure pyro-Glu^1 -His^2 -Trp^3 -Ser^4 -Tyr^5 -D-Leu^6 -Leu^7 -Arg^8 -Pro^9 -NHEt and is disclosed and claimed in U.S. Pat. No. 4,005,063. Typically pA2 values of 7.0 or greater are indicative of good LHRH antagonist potency.

Kb [nM]	pA2	SMILES
0.794	–	CC[C@H]1OC(=O)[C@H](C)[C@@H](O[C@H]2C[C@@](C)(OC)[C@@H](O)[C@H](C)O2)[C@H](C)[C@@H](O[C@@H]2O[C@H](C)C[C@H](N(C)C3CCCC3)[C@H]2O)[C@](C)(OC)C[C@@H](C)C(=O)[C@H](C)[C@H]2N(CCc3ccc(Cl)c(Cl)c3)C(=O)O[C@]12C [Example 1, 3'-N-Desmethyl-3'-N-cyclopentyl-11-deoxy-11-[carboxy-(3,4-dichlorophenethylamino)]-6-O-methyl-erythromycin A 11,12-(cyclic carbamate)]
–	8.60	CCCN(C)[C@H]1C[C@@H](C)O[C@@H](O[C@@H]2[C@@H](C)[C@H](O[C@H]3C[C@@](C)(OC)[C@@H](O)[C@H](C)O3)[C@@H](C)C(=O)O[C@H](CC)[C@@]3(C)OC(=O)N(CCc4ccc(Cl)c(Cl)c4)[C@@H]3[C@@H](C)C(=O)[C@H](C)C[C@@]2(C)OC)[C@@H]1O [Example 3, 3'-N-Desmethyl-3'-N-n-propyl-11-deoxy-11-[carboxy-(3,4-dichlorophenethylamino)]-6-O-methyl-erythromycin A 11,12-(cyclic carbamate)]

Reference: patent US5955440A, “Macrolide LHRH antagonists” (Abbott Laboratories, priority 1998, dated 1999)
